Here are results for 28 molecules from patent publication US6627202B2, “HBV core antigen particles with multiple immunogenic components attached via peptide ligands” (Biogen, Inc., priority 1998, dated 2003).

Several values for one entry are separate records, joined by “and”; a condition that tells them apart may be missing. Identical values can stand only once. Non-standard residues stand in square brackets, D forms with d. No end group written: not given here. βAla = NCCC(=O)O

A word on the Kd: it is the concentration at which binding is half-saturated.

B1: C-terminally truncated HBV core antigen aa3-148: C-terminally truncated HBV core antigen expressed in E.coli (protein)
chain: IDPYKEFGATVELLSFLPSDFFPSVRDLLDTASALYREALESPEHCSPHHTALRQAILCWGELMTLATWVGVNLEDPASRDLVVSYVNTNMGLKFRQLLWFHISCLTFGRETVIEYLVSFGVWIRTPPAYRPPNAPILSTLPETTV

For the first data set, the target named is HBV core antigen (Hepatitis B virus genotype D subtype adw, UniProt P03147).
Sequence of HBV core antigen (P03147 3-183): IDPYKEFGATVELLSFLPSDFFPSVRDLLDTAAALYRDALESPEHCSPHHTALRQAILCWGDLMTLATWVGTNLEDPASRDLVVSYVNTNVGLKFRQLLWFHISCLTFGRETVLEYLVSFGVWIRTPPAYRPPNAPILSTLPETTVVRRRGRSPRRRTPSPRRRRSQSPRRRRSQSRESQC
Test: not given
The settings on record: fd fusion phage carrying the peptide sequence in the amino terminal region of gpIII; in solution, phage associated form; read-out: KD^Rel (nM) relative dissociation constant; cited from earlier work.
For the molecule ADGAHRSLLGRMKGA, the equilibrium dissociation constant (Kd) was 0.94 ± 0.12 nM.

On to ADGALLGRMKPA, for which the dissociation constant (Kd) is 767 ± 8 nM.

ADGALLGRMKRA: the equilibrium dissociation constant (Kd) is 181 ± 12 nM.

Consider ADGHRSSLLGRMKGA, for which the Kd was 1.4 ± 0.13 nM.

On to ADGPRSSLLGRMKGA, for which the Kd is 0.84 ± 0.07 nM.

For ADGSLLGRMKPA, the dissociation constant Kd was 322 ± 50 nM.

On to ADGSRSSLLGRMKGA, for which the Kd was 1.96 ± 0.32 nM.

For ADGTLLGRMKLA, the Kd was 20 ± 2 nM.

Take ADGTQRSLLGRMKGA: the Kd was 0.84 ± 0.06 nM.

Take ADGYQRSLLGRMKGA: the dissociation constant Kd is 0.88 ± 0.08 nM.

As for ADRSLLGRMKGA, the Kd is 1.09 ± 0.02 nM.

Test system in a further data set: not listed separately
The data set is described as follows: storage stability of HBV core antigen preparations. As to conditions: 4° C., sucrose gradient fractions in TBS, sucrose (20%), NaN3 (0.02%). The format is physicochemical. As for the experimental part: Expression of either HBV core antigen (aa3-183) or C-terminally truncated HBV core antigen aa3-148) in E.coli and purification were performed as described in Dyson and Murray (1995). Protein preparations were stored at 4° C. as sucrose gradient fractions in a buffer containing TBS, sucrose (20%) and NaN3 (0.02%).
Regarding B1, the “stability of protein preparation on storage” value is reported as “stable in this form for at least six months”.

The target in another data set is binding of L HBsAg to HBV core antigen (Hepatitis B virus genotype D subtype adw, UniProt P03147).
Sequence of binding of L HBsAg to HBV core antigen (P03147 3-183): as above
Test: not given
The settings on record: N/D represents no observable inhibition; read-out: IC50 μM, concentration of peptide required to inhibit binding of L HBsAg to HBV core antigen at a half maximal level; cited from earlier work.
For ACSLLGRMKG, the IC50 is 26.2 ± 5 µM.

On to ADGSLLGRMKGAAG, for which the IC50 was 4.5 ± 0.8 µM.

In the case of ALLGRMKG, the IC50 was 10 µM and 11 µM.

As to CLLGRMKC, the IC50 is 652 ± 74 µM.

For DGSLLGRMKGAA, the IC50 was 3 ± 0.4 µM.

Turning to HRSLLGRMKGA, the IC50 is 0.5 ± 0.04 µM.

As to LGRMKG, the IC50 was 980 ± 157 µM.

As for LLGRMKG, the IC50 is 46.2 ± 7.4 µM.

With MHRSLLGRMKGA, the IC50 was 0.8 ± 0.1 µM.

On to MHRSLLGRMKGAG(β-A)GC, for which the IC50 is 3.8 ± 0.69 µM.

Turning to RSLLGRMKGA, the IC50 is 0.29 ± 0.02 µM.

For RSLLGRMKGA(β-A)C (RSLLGRMKGA[βAla]C), the IC50 was 0.29 ± 0.03 µM.

Take SLLGRMK: the IC50 was 40.7 ± 4.8 µM.

Consider SLLGRMKG, for which the IC50 is 6.4 ± 0.7 µM.

Consider SLLGRMKG(β-A)C (SLLGRMKG[βAla]C), for which the IC50 was 1.8 ± 0.4 µM.

For the molecule SLLGRMKGA, the IC50 was 2.4 ± 0.2 µM.
